One molecule from patent publication US11396493B2, “Amorphous pyrrolidine derivative as PPAR agonist and preparation method thereof” (GUANGDONG RAYNOVENT BIOTECH CO., LTD., priority 2017, dated 2022) can be followed below.

SMILES strings stand for the structures. Some results are limits rather than exact numbers.

For experiment [1], the system named is CCl4-induced C57BL/6 mouse acute liver injury. Kind of experiment: CCl4-induced C57BL/6 mouse acute liver injury experiment. The format is in vivo. The note with it: no data shown.
Experiment [2] concerns the target T1, PPAR Gamma (Homo sapiens, UniProt P37231).
T1 sequence (P37231 1-505): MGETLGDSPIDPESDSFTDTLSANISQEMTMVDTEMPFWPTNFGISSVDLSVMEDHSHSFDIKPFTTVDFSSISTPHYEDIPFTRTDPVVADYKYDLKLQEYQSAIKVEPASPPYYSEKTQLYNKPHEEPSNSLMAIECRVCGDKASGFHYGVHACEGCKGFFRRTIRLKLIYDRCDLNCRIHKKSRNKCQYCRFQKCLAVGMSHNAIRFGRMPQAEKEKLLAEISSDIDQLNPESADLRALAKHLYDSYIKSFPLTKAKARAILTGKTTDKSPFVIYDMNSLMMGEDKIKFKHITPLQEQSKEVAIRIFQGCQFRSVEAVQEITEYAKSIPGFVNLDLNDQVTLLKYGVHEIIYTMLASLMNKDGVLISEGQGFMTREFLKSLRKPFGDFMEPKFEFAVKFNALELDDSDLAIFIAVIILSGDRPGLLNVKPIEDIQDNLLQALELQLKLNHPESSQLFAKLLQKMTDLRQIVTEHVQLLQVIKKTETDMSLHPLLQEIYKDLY
The experiment can be described thus: PathHunter NHR protein interaction test, agonist mode, PPAR Gamma. The format is cell-based. The text has this:
(§1) Principles of in Vitro Test of PPAR Agonist Activity
(§2) Nuclear Hormone Receptor (NHR) Test
(§3) PathHunter's NHR protein interaction and nuclear transfer test are used to detect the activation ability of nuclear hormone receptor in a uniform, non-imaging experiment. This technology is called as enzyme fragment complementation […], and is developed by DiscoverX.
(§4) NHR protein test is based on the detection of the protein-protein interaction between a standard length of NHR protein in an activated state and a nuclear fusion protein containing a steroid receptor co-activating peptide (SRCP) region and one or more standard LXXLL acting sequences.
(§5) NHR is labeled on the ProLink™ component of an EFC test system, and the SRCP region and the enzyme receptor component (EA) are fused and expressed in the nucleus. When bound to the ligand, the NHR will transfer to the nucleus and obtain the SRCP region in which a complementary effect is produced, thereby generating an equivalent amount of activated-galactosidase (-Gal), accompanied by the generation of chemical light signals. The benefits associated with this pathway include reduced incubation time of the compound, direct test of an NHR target, use of human NHR sequences with a standard length, and selection of some new classes of compounds based on the disruption of protein-protein interactions.
The NHR NT test detected the transfer of an NHR between the cytoplasmic and nuclear compartments. […]
(§6) 2. The chemiluminescence signals generated by the microplate were to be detected by a PerkinElmer Envision instrument.
(§7) 1. The activity of the compound was analyzed by CIBS data analysis software (ChemInnovation, CA).
(§8) 2. For experiments of agonist mode, the percentage activity is calculated by the following formula: % activity=100%×(the mean RLU of the compound to be tested−the mean background RLU of the medium)/(the mean of maximum control of the ligand−the mean background RLU of the medium)

The subject of experiment [3] is MCD diet-induced db/db mouse NASH. The experiment can be described thus: MCD diet-induced db/db mouse NASH model. The format is in vivo. The note with it: no data shown.
The target of experiment [4] is T2, PPAR Delta (Homo sapiens, UniProt Q03181).
T2 sequence (Q03181 1-441): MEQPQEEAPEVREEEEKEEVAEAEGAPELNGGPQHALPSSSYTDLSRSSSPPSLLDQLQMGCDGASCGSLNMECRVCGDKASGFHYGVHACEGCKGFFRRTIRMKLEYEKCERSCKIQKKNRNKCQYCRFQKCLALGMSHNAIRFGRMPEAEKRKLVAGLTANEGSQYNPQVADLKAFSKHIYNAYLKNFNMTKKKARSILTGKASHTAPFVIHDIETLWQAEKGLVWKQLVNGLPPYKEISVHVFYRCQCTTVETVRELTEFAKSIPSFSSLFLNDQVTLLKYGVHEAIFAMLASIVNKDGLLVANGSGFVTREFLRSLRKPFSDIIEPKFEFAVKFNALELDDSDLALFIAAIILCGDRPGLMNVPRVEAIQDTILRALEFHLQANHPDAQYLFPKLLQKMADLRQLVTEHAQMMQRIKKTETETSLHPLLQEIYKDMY
Kind of experiment: PathHunter NHR protein interaction test, agonist mode, PPAR Delta. The format is cell-based.
From the text: as §1, §2, §3, §4, §5
(§9) The NHR NT test detected the transfer of an NHR between the cytoplasmic and nuclear compartments. The receptor was labeled on the ProLink™ component of the EFC test system, while the EA and nuclear sequence were fused, thereby limiting the expression of EA on the nucleus. Nucleus transfer leaded to the complementary effect with EA, thereby generating one equivalent of activated galactosidase (-Gal), accompanied by the generation of chemical light signals.
(§10) 1. PathHunter NHR cell strains were spread from a frozen stock in accordance with standard operations.
(§11) 2. Cells were seeded onto a 384-well white cell plate of 20 uL/well, and incubated at 37° C. for an appropriate time prior to test. The culture medium contained activated carbon dextran with filtered serum to reduce the level of hormone expression.
(§12) Experiments of Agonist Mode:
(§13) 1. As for the measurement of an agonist activity, it is required to incubate the cells with the compound to induce a response.
2. […]
as §6, §7, §8

Experiment [5] deals with T3, PPAR Alpha (Homo sapiens, UniProt Q07869).
T3 sequence (Q07869 1-468): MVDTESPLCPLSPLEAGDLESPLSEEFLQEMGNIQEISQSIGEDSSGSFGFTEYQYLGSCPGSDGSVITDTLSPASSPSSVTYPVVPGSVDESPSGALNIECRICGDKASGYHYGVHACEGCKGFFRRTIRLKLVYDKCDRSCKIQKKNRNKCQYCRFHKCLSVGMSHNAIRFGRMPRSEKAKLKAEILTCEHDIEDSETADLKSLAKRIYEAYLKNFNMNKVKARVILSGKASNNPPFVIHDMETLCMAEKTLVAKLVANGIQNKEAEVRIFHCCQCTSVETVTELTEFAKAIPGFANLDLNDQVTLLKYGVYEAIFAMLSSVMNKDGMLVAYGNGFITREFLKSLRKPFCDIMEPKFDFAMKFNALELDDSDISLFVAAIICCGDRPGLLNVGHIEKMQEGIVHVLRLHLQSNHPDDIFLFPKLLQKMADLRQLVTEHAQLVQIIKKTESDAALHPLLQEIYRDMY
The experiment can be described thus: PathHunter NHR protein interaction test, agonist mode, PPAR Alpha. The format is cell-based.
From the text: as §1, §2, §3, §4, §5, §9, §10, §11, §12, §13
2. […]
as §6, §7, §8

What is called EC50 is the concentration giving half of the maximal effect. Read a high EC50 as lower potency in that assay.

For `CSc1ccc(C(=O)[C@@H]2CN(C(=O)Oc3ccccc3)C[C@H]2Cc2cc(C)c(OC(C)(C)C(=O)O)c(C)c2)cc1` [Compound of formula (I)], in experiment [1], the “effect on liver injury” value is “significantly improving effect”. The EC50 was more than 0.25 µM in experiment [2] (agonist mode), less than 0.1 µM in experiment [4] (agonist mode) and less than 0.1 µM in experiment [5] (agonist mode). Also, the “activation effect on PPAR Gamma receptor” value in experiment [2] (summary of Table 5) is “selective activation effect”. In addition, the “effect on NAS Score” value in experiment [3] is “significantly improving effect”. For the same molecule, the “effect on liver fibrosis” value in experiment [3] is given as “significantly improving effect”. Besides, in experiment [4] (summary of Table 5), the “activation effect on PPAR Delta receptor” value is “significant activation effect”. Further, the “activation effect on PPAR Alpha receptor” value in experiment [5] (summary of Table 5) was “significant activation effect”.
